Data as given in ChEMBL document CHEMBL5143531, “Towards multi-target antidiabetic agents: In vitro and in vivo evaluation of 3,5-disubstituted indolin-2-one derivatives as novel α-glucosidase inhibitors” (Bioorg Med Chem Lett, 2022).

Legend:
Saccharomyces cerevisiae [1] = assay: Inhibition of yeast alpha-glucosidase at 100 uM
[2] = Inhibition of yeast alpha-glucosidase; set-up: species or system Saccharomyces cerevisiae
Rattus norvegicus [3] = assay: Anti-hyperglycemic activity in Wistar rat assessed as reduction in plasma glucose AUC (0 to 120 mins) at 5 mg/kg, po followed by maltose load by oral maltose tolerance test; assay type: functional
[4] = target: Glycogen synthase kinase-3 beta (Homo sapiens, UniProt P49841)
Sequence of Glycogen synthase kinase-3 beta (P49841 whole entry): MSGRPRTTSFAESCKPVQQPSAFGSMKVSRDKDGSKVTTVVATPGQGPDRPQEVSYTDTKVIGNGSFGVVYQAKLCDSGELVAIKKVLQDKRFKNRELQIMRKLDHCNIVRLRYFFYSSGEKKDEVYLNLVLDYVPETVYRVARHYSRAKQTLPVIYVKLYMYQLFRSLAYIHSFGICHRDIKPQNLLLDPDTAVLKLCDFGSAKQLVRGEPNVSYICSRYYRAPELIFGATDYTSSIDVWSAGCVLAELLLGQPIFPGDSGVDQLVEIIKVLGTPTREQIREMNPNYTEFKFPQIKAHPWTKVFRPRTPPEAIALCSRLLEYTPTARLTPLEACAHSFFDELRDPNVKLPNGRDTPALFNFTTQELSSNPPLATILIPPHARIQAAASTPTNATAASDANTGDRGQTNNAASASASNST

Rattus norvegicus [5] = assay: Anti-hyperglycemic activity in Wistar rat assessed as reduction in plasma glucose AUC (0 to 120 mins) at 10 mg/kg, po followed by sucrose load by oral sucrose tolerance test; assay type: functional
Rattus norvegicus [6] = assay: Anti-hyperglycemic activity in Wistar rat assessed as reduction in plasma glucose AUC (0 to 120 mins) at 10 mg/kg, po followed by glucose load by oral glucose tolerance test; assay type: functional
[7] = Inhibition of yeast alpha-glucosidase using p-nitrophenyl glycoside as substrate preincubated with enzyme for 15 mins followed by substrate addition for 30 mins; set-up: species or system Saccharomyces cerevisiae
Rattus norvegicus [8] = assay: Anti-hyperglycemic activity in Wistar rat assessed as reduction in plasma glucose AUC (0 to 120 mins) at 5 mg/kg, po followed by glucose load by oral glucose tolerance test; assay type: functional
Saccharomyces cerevisiae [9] = assay: Potency index, ratio of acarbose IC50 to test compound IC50 for inhibition of yeast alpha-glucosidase
Rattus norvegicus [10] = assay: Anti-hyperglycemic activity in Wistar rat assessed as reduction in plasma glucose AUC (0 to 120 mins) at 5 mg/kg, po followed by sucrose load by oral sucrose tolerance test; assay type: functional
[11] = Inhibition of yeast alpha-glucosidase using p-nitrophenyl glycoside as substrate preincubated with enzyme for 30 mins followed by substrate addition for 60 mins by spectrophotometric analysis; set-up: species or system Saccharomyces cerevisiae

Row | inhibition (Saccharomyces cerevisiae [1]) [%] | SMILES | other results
1 | 57.9 | COC(=O)Nc1ccc2c(c1)C(=Cc1ccc(O)cc1)C(=O)N2 | IC50 [2]: 76.7 µM
2 | -3.94 | Cc1ccc(C(=O)CC2(O)C(=O)Nc3ccc(Br)cc32)cc1 (stereo unspecified) | –
3 | 10.7 | O=C1Nc2ccc(Br)cc2C1=Cc1cccnc1 | –
4 | 33.6 | O=C1Nc2ccc([N+](=O)[O-])cc2C1=Cc1cn[nH]c1C(=O)O (mixture of isomers) | –
5 | 81.1 | COc1ccc2c(c1)C(=CC(=O)O)C(=O)N2 (mixture of isomers) | IC50 [2]: 26.4 µM
6 | -3.81 | O=C1Nc2ccc(Br)cc2C1=CC(=O)c1ccco1 (mixture of isomers) | –
7 | 40.8 | Cc1[nH]ncc1C=C1C(=O)Nc2ccccc21 (mixture of isomers) | –
8 | 57.9 | O=C1Nc2ccc(NC(=O)c3ccco3)cc2C1=Cc1ccc(O)cc1 (mixture of isomers) | –
9 | -1.49 | O=C1Nc2ccc(Br)cc2C1=Cc1ccccn1 | –
10 | 37.5 | O=C1Nc2ccccc2C1=CC(=O)c1ccco1 (mixture of isomers) | –
11 | -1.25 | O=C1Nc2ccccc2C1=Cc1cccs1 (mixture of isomers) | –
12 | 103 | COC(=O)Nc1ccc2c(c1)C(=Cc1ccc([N+](=O)[O-])cc1)C(=O)N2 (mixture of isomers) | inhibition in vivo at 5 mg/kg (Rattus norvegicus [8]): 12.3%; Ratio IC50 (Saccharomyces cerevisiae [9]): 80; inhibition in vivo at 5 mg/kg (Rattus norvegicus [10]): 28.8%; IC50 [2]: 6.78 µM; inhibition in vivo at 5 mg/kg (Rattus norvegicus [3]): 42.1%
13 | 14.9 | CC(=O)Nc1ccc2c(c1)C(=Cc1cccc(O)c1)C(=O)N2 (single isomer, unassigned; isomer 1) | –
14 | -1.71 | O=C1Nc2ccc([N+](=O)[O-])cc2C1=Cc1ccncc1 (mixture of isomers) | –
15 | 21.6 | O=C1Nc2ccccc2C1=Cc1ccc(O)cc1 (single isomer, unassigned; isomer 1) | –
16 | -7.99 | O=C1Nc2ccc([N+](=O)[O-])cc2C1=Cc1cccnc1 | –
17 | -0.73 | O=C1Nc2ccc(Br)cc2C1=Cc1ccncc1 (mixture of isomers) | –
18 | 31.8 | COc1cc(C=C2C(=O)Nc3ccc(NC(=O)c4ccco4)cc32)cc(OC)c1OC (single isomer, unassigned; isomer 1) | –
19 | 8.9 | O=C1Nc2ccc([N+](=O)[O-])cc2C1=CC(=O)c1ccco1 (single isomer, unassigned; isomer 1) | –
20 | 81.7 | COC(=O)Nc1ccc2c(c1)C(=Cc1ccc(Br)cc1)C(=O)N2 (mixture of isomers) | IC50 [2]: 68.9 µM
21 | 11.4 | O=C1Nc2ccccc2C1=Cc1cn[nH]c1C(=O)O (mixture of isomers) | –

Second part, the molecule before the results:

Row | SMILES | inhibition (Saccharomyces cerevisiae [1]) [%] | other results
22 | COc1ccc2c(c1)C(O)(CC(=O)c1ccc(C)cc1)C(=O)N2 (stereo unspecified) | 65.4 | IC50 [2]: 60 µM
23 | Nc1ccc(CC2C(=O)Nc3ccccc32)cc1 (stereo unspecified) | -3.64 | –
24 | C[C@H]1O[C@H](O[C@H]2[C@H](O)[C@@H](O)[C@@H](O[C@H]3[C@H](O)[C@@H](O)C(O)O[C@@H]3CO)O[C@@H]2CO)[C@H](O)[C@@H](O)[C@@H]1N[C@H]1C=C(CO)[C@@H](O)[C@H](O)[C@H]1O (stereo partly specified) [ACARBOSE] | 46.6 | IC50 [2]: 436 µM; inhibition in vivo at 5 mg/kg (Rattus norvegicus [3]): 37.2%
25 | O=C1Nc2ccccc2C1=Cc1cccnc1 (mixture of isomers) | 2.08 | –
26 | N#CCC1(O)C(=O)Nc2ccc(NC(=O)c3ccccc3)cc21 (stereo unspecified) | 29.2 | –
27 | O=C1Nc2ccccc2C1=Cc1ccc([N+](=O)[O-])cc1 (mixture of isomers) | 81.6 | IC50 [2]: 62.4 µM
28 | COc1ccc2c(c1)C(=CC#N)C(=O)N2Cc1ccccc1 (single isomer, unassigned; isomer 1) | 15.5 | –
29 | O=C1Nc2ccc(NC(=O)c3ccccc3)cc2C1=Cc1ccc(O)cc1 (mixture of isomers) | 92.3 | IC50 [4]: 4.34 µM; IC50 [2]: 136 µM
30 | N#C[C@@H]1CCCN1C(=O)CNC12CC3CC(CC(O)(C3)C1)C2 [VILDAGLIPTIN] | – | inhibition in vivo at 10 mg/kg (Rattus norvegicus [5]): 17.9%; inhibition in vivo at 10 mg/kg (Rattus norvegicus [6]): 28.6%
31 | CN1C(=O)C(=Cc2ccccn2)c2ccccc21 | 19.9 | –
32 | CN1C(=O)C(=Cc2ccc(O)cc2)c2ccccc21 (mixture of isomers) | 33.2 | –
33 | Cc1ccc(C(=O)CC2(O)C(=O)Nc3ccccc32)cc1 (stereo unspecified) | -4.01 | –
34 | CCC(=O)Nc1cc(NC(=O)CC)c2c(c1)C(CC#N)(OC(=O)CC)C(=O)N2 (stereo unspecified) | 14.4 | –
35 | O=C(N/N=C/c1cc(O)c(O)c(O)c1)c1cc2ccccc2[nH]1 | – | IC50 [7]: 2.3 µM
36 | COc1cc(NC(C)=O)c2c(c1)C(CC#N)(OC(C)=O)C(=O)N2 (stereo unspecified) | 4.75 | –
37 | Cn1cc(C=C2C(=O)Nc3ccccc32)cn1 | 34.5 | –
38 | CN1C(=O)C2(CC2C#N)c2cc(Br)ccc21 (stereo unspecified) | 61.2 | –
39 | O=C1Nc2ccccc2C12CC2c1ccccn1 (stereo unspecified) | 12.1 | –
40 | CC(=O)Nc1ccc2c(c1)C(CC(=O)O)(OC(C)=O)C(=O)N2 (stereo unspecified) | -5.09 | –
41 | COc1ccc(C(=O)CC2(O)C(=O)Nc3ccc(Br)cc32)cc1 (stereo unspecified) | -3.83 | –
42 | Cc1n[nH]c(C)c1C=C1C(=O)Nc2ccccc21 (mixture of isomers) | 12.6 | –
43 | O=C1Nc2ccccc2C1=Cc1ccncc1 (mixture of isomers) | -3.17 | –
44 | O=C1Nc2ccc(NC(=O)c3ccccc3)cc2C1=Cc1ccc([N+](=O)[O-])cc1 (mixture of isomers) | 104 | IC50 [2]: 56.6 µM
45 | Cc1nn(-c2ccccc2)c(C)c1C=C1C(=O)Nc2ccccc21 (single isomer, unassigned) | 75.5 | IC50 [2]: 153 µM
46 | O=C(CSc1nnc2c(n1)[nH]c1ccccc12)c1cccc(O)c1 | – | IC50 [11]: 2.5 µM
47 | O=C1Nc2ccccc2C1=Cc1ccccn1 | -10 | –
48 | COc1cc(C=C2C(=O)Nc3ccc(NC(C)=O)cc32)cc(OC)c1OC | -9.74 | –
49 | Cc1ccc(C(=O)CC2(O)C(=O)Nc3ccc(NC(=O)c4ccccc4)cc32)cc1 (stereo unspecified) | 52.2 | –
